Consider eight compounds from US6596727B1, “Substituted pyrimidines, processes for their preparation, and their use as pesticides and fungicides” (priority 1992, dated 2003).

Series [1] deals with larvae (L3) of the species Nilaparvata lugens. Kind of series: Nilaparvata lugens larvae test on dipped rice plants. The conditions noted are these: 250 ppm of the active ingredient, 21° C., after 4 days. In kind it is in vivo. From the text:
Rice seed is placed into glass culture dishes containing cotton wool and germinated under moist conditions and, after the stem has grown to a length of approx. 8 cm, it is dipped together with the leaves into the test solution. The test solution is allowed to run off from the treated rice plants, and the plants are transferred to culture containers and populated with batches of 10 larvae (L3) of the species Nilaparvata lugens, the individual test concentrations being kept separate from each other. After the sealed culture containers have been kept at 21° C., the mortality of the cicada larvae can be determined after 4 days.
Under these test conditions, the compounds according to Example No. 9, 25, 30, 93, 99, 432 have a 100% activity at a test concentration of 250 ppm of the active ingredient.

Series [2] deals with tropical cattle ticks (Boophilus microplus). Nature of the series: In vitro test with tropical cattle ticks, inhibition of oviposition. The conditions noted are these: 500 ppm active substance; females immersed five minutes; two weeks after the treatment. It is filed as in vivo. Here is the method:
In vitro test with tropical cattle ticks (Boophilus microplus)
To prepare a suitable preparation of active substance, the active substances were dissolved at a concentration of 10% (w/v) in a mixture composed of dimethylformamide (85 g), nonylphenol polyglycol ether (3 g) and oxethylated castor oil (7 g), and the resulting emulsion concentrates were diluted with water to a test concentration of 500 ppm.
Batches of ten females of the tropical tick Boophilus microplus which had sucked themselves full were immersed for five minutes in these active substance dilutions. The ticks were subsequently dried on filter paper and then attached, by their backs, to an adhesive film for the purpose of oviposition. The ticks were kept in an incubator at 28° C. and an atmospheric humidity of 90%.
As a control, female ticks were merely immersed in water. The inhibition of oviposition two weeks after the treatment was used to assess the effectiveness. 100% mean that no ticks have deposited eggs, 0% means that all ticks have deposited eggs.

The structures appear in SMILES notation.

With `COCc1ncnc(NC2CCC(C(C)(C)C)CC2)c1OC` (mixture of isomers) [Example 9], the “mortality of the cicada larvae (activity)” value (“mortality” below) in series [1] is 100%.

As for `CCC(C)(C)C1CCC(Nc2ncnc(COC)c2OC)CC1` (stereo not drawn) [Example 30], in series [2], the inhibition of oviposition was determined as 100%. Also, the “mortality” value in series [1] stood at 100%.

As for `COCc1ncnc(NC2CCC(c3ccccc3)CC2)c1OC` (mixture of isomers) [Example 93], the “mortality” value in series [1] is listed as 100%.

Consider `CC(C)(C)C1CCC(Nc2ncnc3c2CCCC3)CC1` (mixture of isomers) [Example 10], for which the inhibition of oviposition in series [2] was determined as 100%.

On to `c1ccc(C2CCC(Oc3ncnc4c3CCCC4)CC2)cc1` (stereo not drawn) [Example 106], for which the inhibition of oviposition in series [2] is 100%.

As to `CCc1ncnc(OC2CCC(c3ccc(OC(C)(C)C)cc3)CC2)c1Cl` (stereo not drawn) [Example 432], in series [1], the “mortality” value is reported as 100%.

On to `CC(C)(C)C1CCC(Oc2ncnc3c2CCCC3)CC1` (stereo not drawn) [Example 19], for which, in series [2], the inhibition of oviposition amounted to 100%.

On to `COCc1ncnc(NC2CCC(C(C)C)CC2)c1OC` (stereo not drawn) [Example 25], for which, in series [1], the “mortality” value is reported as 100%.
